# According to ChEMBL document CHEMBL5625205, “3-Methoxy-2-phenylimidazo[1,2-b]pyridazines highly active against Mycobacterium tuberculosis and Mycobacterium marinum” (Eur J Med Chem, 2023):
# Activity calls are given as the source filed them. The calls are words filed in the database; no cut-off is given here.
# How the values were obtained:
# [1] = test system: Mycobacterium tuberculosis; experiment: Antimycobacterial activity against Mycobacterium tuberculosis H37Ra assessed as inhibition of bacterial growth measured for 5 days by luminometer; type: functional; settings: 120 h, time 5 day
# Mycobacterium marinum = experiment: Antimycobacterial activity against Mycobacterium marinum assessed as inhibition of bacterial growth measured for 5 days by luminometer; type: functional; settings: 120 h, time 5 day
# [2] = Octanol-water distribution coefficient, logD of the compound at pH 7.4 by HPLC analysis; type: physicochemical
# [3] = Kinetic solubility of compound in DMSO at pH 2 incubated for 30 mins by laser nephelometry; type: physicochemical; settings: read-out: Kinetic_solubility
# [4] = Kinetic solubility of compound in DMSO at pH 6.5 incubated for 30 mins by laser nephelometry; type: physicochemical; settings: read-out: Kinetic_solubility
# [5] = Metabolic stability in mouse liver microsomes assessed as half life incubated for 60 mins in presence of NADPH; type: ADME, Microsome
# [6] = Metabolic stability in mouse liver microsomes assessed as intrinsic clearance incubated for 60 mins in presence of NADPH; type: ADME, Microsome; settings: read-out: CLH
# [7] = test system: Mycobacterium tuberculosis; experiment: Antimycobacterial activity against Mycobacterium tuberculosis H37Ra infected in mouse assessed as reduction in relative light unit in lung at 30 to 300 mg/kg,po administrated once daily for 5 days; type: functional, organism-based; settings: dose 30-300 mg/kg, time 5.0 day
# [8] = test system: Mycobacterium tuberculosis; experiment: Antimycobacterial activity against Mycobacterium tuberculosis H37Ra infected in mouse assessed as reduction in relative light unit in lung at 10 mg/kg,po administrated once daily for 5 days; type: functional, organism-based; settings: time 5.0 day
SMILES,MIC90 [1],MIC90 (Mycobacterium marinum),other results
COc1c(-c2ccccc2)nc2ccc(Cl)nn12,385 µM,,
COc1c(-c2ccccc2)nc2ccc(SCc3ccccn3)nn12,5.74 µM,2.87 µM,
COc1cccc(CSc2ccc3nc(-c4ccc(F)cc4F)cn3n2)c1,261 µM,261 µM,
COc1cccc(CNc2ccc3nc(-c4ccccc4)c(OC)n3n2)c1,6.94 µM,6.94 µM,
COc1cccc(COc2ccc3nc(-c4ccc(F)cc4)c(OC)n3n2)c1,2.64 µM,2.64 µM,
COc1ccc(CSc2ccc3nc(-c4ccc(Cl)c(Cl)c4)c(OC)n3n2)cc1,> 220 µM,> 220 µM,
CN(Cc1ccccc1)c1ccc2nc(-c3ccc(F)cc3)c(O)n2n1,144 µM,144 µM,
COc1cccc(CSc2ccc3nc(-c4cccc([N+](=O)[O-])c4)c(OC)n3n2)c1,> 230 µM,> 230 µM,
COCCOc1c(-c2ccccc2)nc2ccc(SCc3cccc(OC)c3)nn12,29.7 µM,119 µM,
O=c1oc2ccccc2c2nc3ccc(SCc4ccccc4)nn3c12,278 µM,278 µM,
COc1cccc(CNc2ccc3nc(-c4ccccc4F)c(OC)n3n2)c1,6.61 µM,6.61 µM,
COc1c(Cc2ccccc2)nc2ccc(SCc3cccc([N+](=O)[O-])c3)nn12,> 245 µM,24.6 µM,
COc1c(-c2ccc(Br)cc2)nc2ccc(N(C)Cc3ccccc3)nn12,5.91 µM,11.8 µM,
COc1cccc(CSc2ccc3nc(-c4ccc(Cl)cc4)c(OC)n3n2)c1,9.71 µM,3.03 µM,
COc1c(-c2ccccc2)nc2ccc(SCc3nc4ccccc4n3C)nn12,24.9 µM,250 µM,
CN(Cc1ccccc1)c1ccc2nc(-c3ccccc3F)c(O)n2n1,144 µM,287 µM,
c1ccc(CSc2ccc3nc(-c4ccccc4)cn3n2)cc1,> 315 µM,> 315 µM,
Oc1ccccc1-c1nc2ccc(SCc3ccccc3)nn2c1Br,243 µM,243 µM,
COc1cccc(CS(=O)(=O)c2ccc3nc(-c4ccc(F)cc4F)c(OC)n3n2)c1,225 µM,225 µM,

SMILES,MIC90 [1],MIC90 (Mycobacterium marinum),other results
COc1cccc(CSc2ccc3nc(-c4ccc(F)cc4)c(CN(C)C)n3n2)c1,23.7 µM,47.3 µM,
CN(Cc1ccccc1)c1ccc2nc(-c3ccc(F)cc3F)c(O)n2n1,273 µM,> 273 µM,
CN(C)Cc1c(-c2ccccc2)nc2ccc(SCc3ccccc3)nn12,6.68 µM,13.4 µM,
COc1cccc(CSc2ccc3nc(-c4ccc(F)cc4F)c(OC)n3n2)c1,15.1 µM,1.21 µM,
c1ccc(COc2ccc3nc(-c4ccccc4)cn3n2)cc1,332 µM,> 330 µM,
COc1c(-c2ccc(F)cc2F)nc2ccc(N(C)Cc3ccccc3)nn12,0.64 µM,0.64 µM,logD [2]: 4.6; solubility kinetic at 0.5 h [3]: 25 µg/mL; solubility kinetic at 0.5 h [4]: 1.6 µg/mL; half-life [5]: 8 min; microsomal CLint [6]: 215 µL/min/mg; Activity [7]: inactive
COc1cccc(CSc2ccc3nc(-c4ccc(Cl)c(Cl)c4)c(OC)n3n2)c1,> 220 µM,> 220 µM,
CCOc1c(-c2ccccc2)nc2ccc(SCc3ccccc3)nn12,69.2 µM,69.2 µM,
CN(Cc1ccccc1)c1ccc2nc(-c3ccccc3)c(O)n2n1,303 µM,> 303 µM,
COc1cccc(CNc2ccc3nc(-c4ccc(F)cc4)c(OC)n3n2)c1,6.61 µM,13.2 µM,
COc1c(-c2ccccc2)nc2ccc(SCc3ccsc3)nn12,0.7 µM,1.41 µM,
COc1cccc(CSc2ccc3nc(-c4ccc(F)cc4F)c(CN(C)C)n3n2)c1,227 µM,227 µM,
COc1c(-c2ccc(F)cc2)nc2ccc(N(C)Cc3ccccc3)nn12,1.38 µM,1.38 µM,
COc1c(-c2ccc(F)cc2)nc2ccc(SCc3ccsc3)nn12,26.9 µM,5.38 µM,
CN(Cc1ccccc1)c1ccc2nc(-c3ccc(Cl)cc3)c(O)n2n1,274 µM,> 274 µM,
COc1c(-c2cccc([N+](=O)[O-])c2)nc2ccc(N(C)Cc3ccccc3)nn12,> 250 µM,> 250 µM,
CO[C@H]1/C=C/O[C@@]2(C)Oc3c(C)c(O)c4c(O)c(c(/C=N/N5CCN(C)CC5)c(O)c4c3C2=O)NC(=O)/C(C)=C\C=C\[C@H](C)[C@H](O)[C@@H](C)[C@@H](O)[C@@H](C)[C@H](OC(C)=O)[C@@H]1C [RIFAMPIN],0.073 µM,0.24 µM,Activity [8]: Active
COc1ccc(CSc2ccc3nc(-c4ccccc4)c(OC)n3n2)cc1,5.3 µM,5.3 µM,
COc1c(-c2ccccc2)nc2ccc(OCc3ccccc3)nn12,3.02 µM,1.51 µM,
